Test results published in patent publication US20120258944A1, “ANTIOXIDANTS FOR USE IN THERAPY” (priority 2009, published 2012).

What was measured:
[1] = test system: MG-63, HEK-293, SHSY-5y, MRC-5 and CaCo-2-cells; test: Alamar Blue cell viability/proliferation assay; assay type: cell-based, human
Description: Alamar Blue is a non-toxic metabolic indicator for viable cells. Following uptake, the dye becomes reduced and causes a change in the colour of the cell. The colour change correlates reasonably well with the number of living cells in the sample.
Cells w/o antioxidant were used as controls.
Alamar Blue is a non-toxic metabolic indicator for viable cells. Upon uptake into the cell the dye becomes reduced and changes colour. The colour change correlates approximately with the number of living cells in the sample.

[2] = two-phase model, N-acetylcysteine in the aqueous phase; cited from earlier work
[3] = test system: human umbilical vein endothelial cells (HUVEC); test: Visual evaluation of HUVECs under the microscope (dislodging from the surface); settings: human, 24 h
Protocol: Cells were harvested and resuspended in supplemented medium 200 without phenol red. 50 000 cells were added in duplicates to 96-well plates. The compounds were tested on HUVECs according to the following concentrations.
The compounds were diluted in Medium 200 from the 0.1M stock solution. The toxic effects of the compounds were tested after 24 hrs, 48 hrs and 72 hrs.
By visually looking at the cells under the microscope and estimating the dislodging from the surface, the state of the cells was evaluated.

[4] = ABTS radical cation assay (TEAC) in aqueous PBS buffer; settings: 6.08 micro-M
Protocol: In order to investigate its aqueous phase performance, we thought that it would be interesting to determine its Trolox Equivalent Antioxidant Capacity (TEAC) (Free Rad. Biol. Med. 1999, 26, 1231-1237) which has been used to quantify the antioxidant activity of biological fluids, extracts and pure compounds. The TEAC value is defined as the concentration of Trolox which has an equivalent antioxidant potential as a 1 mM solution of the compound under investigation (Free Rad. Biol. Med. 1996, 20, 933-956).
A 2,2′-azinobis(3-ethylbenzothiazoline-6 sulphonic acid radical cation (ABTS•+) assay was used to determine relative TEAC values. To a preformed solution of ABTS•+ in PBS buffer, pH 7.4, with an absorbance slightly above 0.7 were added various amounts (3-30 microM) of organoselenium compound 1, Trolox, sodium ascorbate and N-acetylcysteine. The absorbance at 734 inn was recorded immediately after mixing and then every minute for the next 8 minutes.
Antioxidant activity as determined by the capacity of the antioxidant to decolorize the ABTS^+ radical cation was determined essentially as described in the literature (Acc. Chem. Res. 1986, 19, 194-201). […] In a typical experiment, the antioxidant (1.52 micro-L of a 3.00 mM solution in MeOH or water; final concentration=6.08 micro-M) was syringed into 0.750 mL of the ABTS^+ radical cation solution. After initial mixing, the absorbance was recorded every minute for the next eight minutes.

[5] = test system: human neutrophils and PBMCs, rat neutrophils and PBMCs, human PLB-985 cell line; test: Extracellular ROS, isoluminol luminescence, PMA or fMLF stimulated cells; assay type: cell-based; settings: PMA or fMLF 30 ng/ml; compounds 120 to 0 microM; FIG. 1-4, 9-12, 14-17
Protocol: Validation was performed by stimulating cells with PMA and fMLF. When treated with the antioxidants, altered level of ROS production from the cells was measured using luminometry. Both intracellular and extracellular effect on ROS on the cells was analyzed using isoluminol (extracellular) and luminol (intracellular when co-administered with SOD and catalase) (Dahlgren et al. “Respiratory burst in human neutrophils”, Journal of Immunological Methods 232 1999; 3-14).
The isoluminol reagent buffer was made of HBSS buffer (with Ca^2+), Isoluminol and HRP.
1) Add 25 microL of antioxidants to assay plate to get proper concentrations in a total reaction volume of 100 micro-L. 2) Add 25 microL of PMA (120 ng/ml) and fMLF (120 ng/ml) to assay plate to get concentration of 30 ng/ml in a total reaction volume of 100 microL. 3) Add 50 microL of cell suspension (2 million cells/ml) to each well. Immediately after addition of cell suspension initiate luminescence measurement; the reaction starts at once when the cells are added to the assay plate. Measurement points are taken at 1-minute intervals for 25 minutes. Data is presented as AUC (Area Under Curve) by a summary of all collected measurements for each well.
FIG. 1: Extracellular ROS analyzed by Isoluminol induced luminescence in human Neutrophils. ROS induced with PMA (30 ng/ml) with 200, 100 or 0 microM NAC. Concentrations of compounds 120, 60, 30 and 0 microM final concentrations.
FIG. 9: Extracellular ROS analyzed by Isoluminol induced luminescence in rat Neutrophils. ROS induced with PMA (30 ng/ml) with 200, 100 or 0 microM NAC. Concentrations of compounds 120, 60, 30 and 0 microM final concentrations.
FIG. 11: Extracellular ROS analyzed by Isoluminol induced luminescence in human PLB-985 cell line. ROS induced with PMA (30 ng/ml) with 200, 100 or 0 microM NAC. Concentrations of compounds 120, 60, 30 and 0 microM final concentrations.

CC1Cc2cc(O)ccc2[Se]1 (stereo not shown) [Compound 1]
cell growth (Alamar Blue) [1]: normal cell growth patterns
concentration until which no sign of cell death or decreased proliferation ([1]; human): 235 micro-M
Inhibited Rate of Linoleic Acid Peroxidation (Rinh) [2]: 69 µM/h
concentration at which cells were affected (visual) [3]: 500 µM
TEAC value ([4]; PBS buffer pH 7.4, after 5 min): 1.6
number of ABTS radicals quenched by each molecule of the antioxidant ([4]; PBS buffer pH 7.4, versus reference antioxidants): clearly outperformed both sodium ascorbate and Trolox
antioxidative effect on extracellular ROS [5]: antioxidative effect on extra cellular ROS
